According to patent publication US8778888B2, “Cystine knot peptides binding to alpha IIb beta 3 integrins and methods of use” (The Board of Trustees of the Leland Stanford Junior …, priority 2009, dated 2014):
Where two headings read alike, the source gives them in different places. Bridge positions count the residues as written; N and C are the ends. Square brackets hold non-standard residues; d marks the D form. Peptide text beside a SMILES is read from it. hArg = N=C(N)NCCCC[C@H](N)C(=O)O; Mpa = O=C(O)CCS

What was measured:
human platelets = conditions: for IC50: read-out: aggregation (IC50; nM) human platelets, platelets activated with 25 μM ADP, A365 end point over 1 h
Method: Human platelets isolated by pheresis were obtained from the Stanford Blood Center and stored in serum with 7% acid/citrate/dextrose (ACD) solution. Prior to use, the platelets were centrifuged, aspirated, washed once with Tyrode's buffer (140 mM NaCl, 3 mM KCl, 12 mM NaHCO3, 0.4 mM NaH2PO4, 2 mM MgCl2, 0.1% glucose, pH 7.4), and counted using a haemacytometer. Counted platelets were resuspended in fresh plasma to a final concentration of approximately 2.8×10^8 cells/mL. 180 μL of the platelet solution, or approximately 5×10^7 platelets, were added to separate wells in a 96-well microtiter plate. AgRP peptide or eptifibatide (Cell Sciences) were added to the wells at varying concentrations, after which the platelets were activated with 25 μM ADP. Absorbance at 365 nm was monitored over 1 hr using a Synergy 4 microplate reader (BioTek Instrumentation) with readings taken every 35 s, with 3 s of shaking between readings. […] Experiments were performed at least 3 times.
Next, the effects of the engineered AgRP peptides on αIIbβ3-mediated platelet aggregation were studied. Three αIIbβ3-specific peptides (2bA, 2bJ, and 2bO) and two β3-specific peptides (b3A and b3I) were tested again. […] Microtiter plates containing platelets in serum in the presence or absence of AgRP peptides were activated using ADP at a final concentration of 25 μM, and absorbance at 365 nm was monitored over 1 h.

[1] = target: T1, αIIbβ3 integrin (K562-αIIbβ3 cells) (Homo sapiens, UniProt P05106+P08514); assay: Cell binding assay on K562-αIIbβ3 cells (flow cytometry); conditions: K562-αIIbβ3 versus K562-αvβ3 cells
T1 construct: expressed in transfected cells; host or cells: K562 leukemia cells (from S. Blystone)
Method: K562 cells stably expressing αIIbβ3, αvβ3, or αvβ5 were obtained from S. Blystone and maintained in IMDM media (Gibco) containing 10% FBS and 1.0 mg/mL geneticin. For binding assays, 10^5 cells were suspended in IBB, and varying concentrations of AgRP peptides were added. After 3 hour incubation at 4° C., the cells were centrifuged, aspirated, and resuspended in ice-cold BPBS containing a 1:20 dilution of fluorescein-conjugated goat anti-His antibody (Bethyl) for […]. The cells were then centrifuged, aspirated, and stored as pellets on ice until analysis by flow cytometry using a BD FACS Caliber instrument Becton Dickinson. Binding data was analyzed with FlowJo (Treestar, Inc.) and data was fit to sigmoidal plots using Kaleidagraph (Synergy Software) to calculate equilibrium dissociation constants. Experiments were performed at least 3 times and data are presented as average values with standard deviations.
To determine the integrin binding affinities and specificities of the engineered AgRP peptides, direct binding assays were performed using K562 leukemia cells that have been transfected to stably express different integrin receptors See J. Cell Biol. 127(4) (1994). Cells were incubated in the presence of varying concentrations of AgRP peptides at 4° C., to minimize receptor internalization, followed by staining with a fluorescein-conjugated anti-hexahistidine antibody and analysis by flow cytometry. Equilibrium dissociation constants (KD values) were determined by plotting AgRP peptide concentration (log scale) versus normalized mean fluorescence intensity, then fitting the data to a sigmoidal curve.

[2] = cited from earlier work; for bleeding in patients: clinical use
[3] = test system: ADP-induced platelet aggregation; conditions: clinical use; cited from earlier work
αIIbβ3 integrin = αIIbβ3 integrin (Homo sapiens, UniProt P05106+P08514); conditions: clinical use; cited from earlier work
[4] = test system: αvβ3 integrin and the leukocyte integrin Mac-1; conditions: cited from earlier work
αvβ3 integrin = target: T2, αvβ3 integrin (Homo sapiens, UniProt P05106+P06756); assay: Yeast-displayed AgTx constructs binding to αvβ3 integrin; conditions: 10 nM αvβ3, the lowest concentration tested
T2 construct: purchased Millipore
Method: The yeast library was grown in selective media (SD-CAA, 20 g/L glucose, 6.7 g/L yeast nitrogen base without amino acids, 5.4 g/L Nα2HPO4, 8.6 g/L NaH2PO4.H2O, and 5 g/L Bacto casamino acids) and induced in selective media containing galactose (SG-CAA). For library screening, 5 to 25×10^6 yeast (depending on the sort round) were labeled with detergent-solubilized integrin and a 1:250 dilution of chicken anti-c-myc IgY (Invitrogen) in integrin binding buffer (IBB, 20 mM Tris pH 7.5 with 1 mM MgCl2, 1 mM MnCl2, 2 mM CaCl2, 100 mM NaCl, and 1 mg/mL bovine serum albumin) at room temperature for 2 h. The yeast cells were centrifuged at 4° C. and the supernatant was removed by aspiration. The yeast were then resuspended in ice-cold BPBS (PBS containing 1 mg/mL bovine serum albumen) containing a 1:100 dilution of phycoerythrin-conjugated goat anti-chicken IgY secondary antibody (Santa Cruz Biotechnology) and a 1:25 dilution of either fluorescein-conjugated anti-αvβ3 antibody (Biolegend) or fluorescein-conjugated anti-αIIb antibody (Biolegend), as appropriate. After incubation for 20 min on ice, the yeast were centrifuged, aspirated, and stored as pellets on ice until cell sorting. Yeast library screening was performed using a Becton Dickinson FACS Vantage SE instrument (Stanford FACS Core Facility) and CellQuest software. […]

T2 sequence (P06756 31-889 limits assumed): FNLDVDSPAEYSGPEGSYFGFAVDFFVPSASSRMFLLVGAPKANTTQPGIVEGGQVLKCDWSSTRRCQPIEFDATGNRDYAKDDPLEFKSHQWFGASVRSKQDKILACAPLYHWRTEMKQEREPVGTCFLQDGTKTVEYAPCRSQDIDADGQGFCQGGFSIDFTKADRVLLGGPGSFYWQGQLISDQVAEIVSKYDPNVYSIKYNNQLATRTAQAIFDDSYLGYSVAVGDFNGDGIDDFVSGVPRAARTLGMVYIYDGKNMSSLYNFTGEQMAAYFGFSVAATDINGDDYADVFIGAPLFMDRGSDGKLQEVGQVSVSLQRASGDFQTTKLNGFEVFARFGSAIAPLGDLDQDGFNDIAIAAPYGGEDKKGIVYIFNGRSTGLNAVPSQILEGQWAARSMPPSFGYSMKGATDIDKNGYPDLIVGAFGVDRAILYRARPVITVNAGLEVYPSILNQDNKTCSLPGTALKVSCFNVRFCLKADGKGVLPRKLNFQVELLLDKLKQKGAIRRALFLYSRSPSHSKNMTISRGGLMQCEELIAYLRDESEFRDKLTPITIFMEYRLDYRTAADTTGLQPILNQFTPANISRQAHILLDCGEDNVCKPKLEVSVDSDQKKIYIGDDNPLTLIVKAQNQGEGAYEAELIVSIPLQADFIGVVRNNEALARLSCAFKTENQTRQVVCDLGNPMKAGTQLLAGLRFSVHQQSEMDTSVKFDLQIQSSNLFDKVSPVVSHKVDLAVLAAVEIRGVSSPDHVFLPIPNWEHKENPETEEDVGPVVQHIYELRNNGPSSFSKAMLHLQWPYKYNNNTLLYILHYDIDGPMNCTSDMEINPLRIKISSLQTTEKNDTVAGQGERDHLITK
T2 sequence (P06756 891-1048 partner limits assumed): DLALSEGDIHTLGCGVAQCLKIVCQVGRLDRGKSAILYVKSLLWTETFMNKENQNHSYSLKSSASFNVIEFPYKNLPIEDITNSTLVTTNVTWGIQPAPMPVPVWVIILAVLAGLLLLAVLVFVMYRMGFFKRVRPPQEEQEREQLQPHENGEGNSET
T2 sequence (P05106 27-788): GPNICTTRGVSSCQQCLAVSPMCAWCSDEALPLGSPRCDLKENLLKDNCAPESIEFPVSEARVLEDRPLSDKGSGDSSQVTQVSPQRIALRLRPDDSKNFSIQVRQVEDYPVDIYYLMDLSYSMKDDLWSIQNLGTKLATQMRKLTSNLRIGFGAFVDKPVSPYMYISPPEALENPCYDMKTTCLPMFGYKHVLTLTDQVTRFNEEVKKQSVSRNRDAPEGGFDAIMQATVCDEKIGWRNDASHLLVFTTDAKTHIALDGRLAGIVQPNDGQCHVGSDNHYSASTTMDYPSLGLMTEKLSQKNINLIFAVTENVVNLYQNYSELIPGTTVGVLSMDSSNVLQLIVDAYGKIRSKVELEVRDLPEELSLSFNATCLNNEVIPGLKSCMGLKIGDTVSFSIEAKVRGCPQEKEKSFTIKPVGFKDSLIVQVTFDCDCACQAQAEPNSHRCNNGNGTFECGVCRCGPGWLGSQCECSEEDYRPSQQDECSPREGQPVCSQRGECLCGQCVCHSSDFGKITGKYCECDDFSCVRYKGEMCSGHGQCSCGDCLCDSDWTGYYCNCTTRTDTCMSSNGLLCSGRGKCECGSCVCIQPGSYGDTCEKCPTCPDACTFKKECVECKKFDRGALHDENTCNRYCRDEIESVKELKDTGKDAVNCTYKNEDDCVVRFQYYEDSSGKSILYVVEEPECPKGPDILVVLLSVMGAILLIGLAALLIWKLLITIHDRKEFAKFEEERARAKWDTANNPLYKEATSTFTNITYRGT

For `CC(C)C[C@@H]1NC(=O)[C@@H]2CSSC[C@@H]3NC(=O)[C@H]([C@@H](C)O)NC(=O)[C@H](C)NC(=O)[C@H](C)NC(=O)[C@@H]4CCCN4C(=O)[C@H](CC(=O)O)NC(=O)[C@H](CSSC[C@H](NC(=O)CNC(=O)[C@H](CCCNC(=N)N)NC(=O)[C@@H]4CCCN4C(=O)[C@H](CCCCN)NC(=O)[C@H](CC(=O)O)NC(=O)[C@H](CC(=O)O)NC(=O)[C@H](CC(=O)O)NC(=O)[C@H](CC(=O)O)NC(=O)[C@H](CCCCN)NC(=O)[C@H](Cc4ccc(O)cc4)NC(=O)[C@H](CC(=O)O)NC(=O)[C@@H](NC(=O)[C@@H](N)Cc4ccc(O)cc4)C(C)C)C(=O)N[C@@H](C(C)C)C(=O)N[C@@H](CCCNC(=N)N)C(=O)N[C@@H](CC(C)C)C(=O)N[C@@H](Cc4c[nH]cn4)C(=O)N[C@@H](CCC(=O)O)C(=O)N[C@@H](CO)C(=O)N2)NC(=O)[C@H](CSSC[C@@H](C(=O)N[C@@H](CCCNC(=N)N)C(=O)N[C@H](C(=O)N[C@@H](CCCNC(=N)N)C(=O)N[C@@H](Cc2c[nH]cn2)C(=O)N[C@@H](Cc2c[nH]cn2)C(=O)N[C@@H](Cc2c[nH]cn2)C(=O)N[C@@H](Cc2c[nH]cn2)C(=O)N[C@@H](Cc2c[nH]cn2)C(=O)N[C@@H](Cc2c[nH]cn2)C(=O)O)[C@@H](C)O)NC(=O)[C@H](Cc2ccc(O)cc2)NC(=O)[C@@H]2CSSC[C@H](NC(=O)[C@H](Cc4ccc(O)cc4)NC3=O)C(=O)N[C@@H](CCCNC(=N)N)C(=O)NCC(=O)N[C@@H](CCCNC(=N)N)C(=O)NCC(=O)N[C@@H](CC(=O)O)C(=O)N[C@@H](C(C)C)C(=O)N[C@@H](CCCCN)C(=O)N[C@@H](CC(C)C)C(=O)N[C@@H](CCCNC(=N)N)C(=O)N2)NC(=O)[C@@H]2CCCN2C(=O)[C@H](C(C)C)NC(=O)[C@H](CCC(N)=O)NC(=O)[C@H](CCC(N)=O)NC(=O)CNC1=O` [b3I], the “inhibition of platelet aggregation (in words)” value (human platelets; ADP-activated human platelets, comparison with eptifibatide) was “slightly more effective” and the “integrin binding specificity on K562 cell lines” value [1] was “bound both K562-αIIbβ3 and K562-αvβ3 cells”.

In the case of `N=C(N)NCCCC[C@@H]1NC(=O)CCSSC[C@@H](C(N)=O)NC(=O)[C@@H]2CCCN2C(=O)[C@H](Cc2c[nH]c3ccccc23)NC(=O)[C@H](CC(=O)O)NC(=O)CNC1=O` [eptifibatide, Mpr-Har-Gly-Asp-Trp-Pro-Cys, reference compound] ([Mpa][hArg]GDWPC-NH2; disulfide 1-7), the IC50 (human platelets) is given as 94 ± 14 nM, the IC50 (human platelets; listed as Eptifibatide) is given as 80 nM and the bleeding in patients [2] is given as “no increases in bleeding have been reported”.

In the case of “Abciximab: αIIbβ3 integrin-specific antibody fragment c7E3”, the bleeding in patients [2] is listed as “bleeding issues in many patients”, the “persistence of the antibody in the patient” value ([2]; in spite of a 12-hour infusion) is listed as “over two-thirds of the antibody persists in the patient for several weeks” and the “inhibition of ADP-induced platelet aggregation” value [3] is listed as greater than 80%. For the same compound, the “blockage of αIIbβ3 integrin” value (αIIbβ3 integrin) was greater than 90% and the “binding to other integrins” value [4] was “also binds to αvβ3 integrin and the leukocyte integrin Mac-1”.

With “GCIAEDYGRCTWGGTPCCRGRGCICSGRGDNDLVCECT [AgTx2-7A, AgRP 7A loop 4 grafted into AgTx consensus 2]” the “binding to αvβ3 integrin on yeast surface” value (αvβ3 integrin) was “Binding was observed at 10 nM αvβ3”.

In the case of “GCIAEDYGRCTWGGTPCCRGRPCRCSGRGDNDLVCECT [AgTX-1-7A, AgRP 7A loop 4 grafted into AgTx consensus 1]”, the “binding to αvβ3 integrin on yeast surface” value (αvβ3 integrin) is reported as “Binding was observed at 10 nM αvβ3”.
